The source of these data is patent US20220033431A1, “Cyclic Di-Nucleotide Compounds as STING Agonists” (Merck Sharp & Dohme Corp., priority 2018, published 2022).

For assay [1], the target named is T1, full-length HAQ STING (Homo sapiens, UniProt Q86WV6, G230A/H232R/R293Q/R71H).
T1 construct: Full-Length HAQ STING [STING(1-379)R71H, G230A, H232R,; made in house; host or cells: Trichoplusia ni insect cells (baculovirus made in Sf21); membrane preparation
Description: 3H-cGAMP filtration binding assay (HAQ STING). Particulars: 3H-cGAMP filtration binding assay for HAQ STING; competition with tritiated cGAMP. The text has this: The ability of compounds to bind STING is quantified by their ability to compete with tritiated cGAMP ligand for human STING receptor membrane using a radioactive filter-binding assay. The binding assay employs STING receptor obtained from Trichoplusia ni cell membranes (T.ni; Expression Systems, cat #94-002F, www.expressionsystems.com) overexpressing full-length HAQ STING and tritiated cGAMP ligand.
The basic HAQ STING filtration assay protocol is as follows:
Compound and membrane then preincubated for 60 min at RT to allow compound binding to equilibrate. Following equilibration, 8 nM of [^3H]c-GAMP ligand was prepared by diluting into assay buffer, and 50 uL of this working stock was then manually added to each well of the assay plate. […] The filter plates were then dried at 55° C. for 30 min using a pressurized oven before 30 uL of ULTIMA GOLD F scintillate was added to each well. Tritium levels for each reaction well were then measured using a PerkinElmer TopCount plate reader.
After normalization to controls, the percent activity for each compound concentration was calculated by measuring the amount of remaining radioactivity. The plot of percent activity versus the log of compound concentration was fit with a 4-parameter dose response equation to calculate EC50 values.

For assay [2], the system named is THP1 cells. Nature of the assay: IFN-β secretion in THP1 cell culture (5 h). Particulars: 30 uM cGAMP = 100%; for activation at 30 µM: Homo sapiens, THP-1, 5 h. Format: cell-based, human. Here is the method: The ability of compounds to stimulate the secretion of interferon-beta from THP1 cells was measured using a human IFN-β AlphaLISA kit (Perkin Elmer, Cat. No. AL265F). The basic protocol is as follows:
A Labcyte Echo 550 acoustic dispenser was used to transfer 120 nL of compound dissolved in DMSO into the wells of an empty, sterile 384-well microplate, (Corning, Cat. No. 3712). THP1 cells (American Type Culture Collection, Cat. No. TIB202) previously frozen in Recovery Medium (Life Technologies, Cat. No. 12648-010) were thawed and immediately diluted 10-fold into 37° C. assay medium (RPMI 1640+L-Glutamine & phenol red, Life Technologies, Cat. No. 11875-085; 0.5% heat inactivated fetal bovine serum, Sigma Aldrich, Cat. No. F4135; 1 mM Sodium Pyruvate, Life Technologies, Cat. No. 11360-070; lx non essential amino acids; Life Technologies, Cat. No. 11140-050). The cell viability and count was ascertained using a Beckman Coulter V-Cell XR cell counter. The cell suspension was centrifuged at 200×g for 5 min at RT. Cells were resuspended to a density of 0.8×10^6/mL in 37° C. assay medium. Subsequent liquid transfers were performed using either a Matrix electronic multichannel pipette or an Agilent Bravo Automated Liquid Handling Platform.
The assay was started by dispensing 40 μL of the previously prepared cell suspension into the wells of the plate containing compounds. After 5 h incubation at 37° C., 5% CO2 in a humidified atmosphere, the plate of cells and compounds was centrifuged at 200×g for 5 min at RT. From each well, […] of supernatant was transferred into corresponding wells of a white 384-well plate (Perkin Elmer, Cat. No. 6005620). To these supernatant-containing wells was added 10 μL of 5× Anti-Analyte Acceptor beads (50 μg/mL of AlphaLISA HiBlock Buffer) and incubated for 30 min at RT while shaking on an orbital plate shaker. To each well was added 10 μL of 5× Biotinylated Antibody Anti-analyte (5 nM in AlphaLISA HiBlock Buffer) and incubated on an orbital plate shaker for 60 min at RT or overnight at 4° C. To each well was added 25 μL of 2× SA-Donor beads ([…] in AlphaLISA HiBlock Buffer) and incubated for 30-45 min at RT in the dark while shaking on an orbital plate shaker. The plate was then read on a Perkin Elmer Envision (λex=680 nm, λem=[…]). The percent effect of the AlphaLISA signal at each compound concentration was calculated based on 30 uM cGAMP positive controls and 0.3% DMSO negative controls. The plot of percent effect versus the log of compound concentration was fit with a 4-parameter concentration response equation to calculate EC50 values. The test compounds were tested at concentrations 30000, 10000, 3333, 1111, 370.4, 123.4, 41.2, 13.7, 4.6, and 1.5 nM with 0.3% residual DMSO. The control compound, cGAMP was tested at concentrations 100000, 33333, 11111, 3704, 1235, 412, 137, 46, and 15 nM with 0.3% residual DMSO.
Compounds of the disclosure were evaluated for IFN-β secretion in THP1 cell culture as described above. The following table tabulates the biological data for these compounds as percent activation relative to 2′3′-cGAMP at the 30 μM concentration.

[3] abbreviates: IFN-β secretion, THP1 cells, 5 h, 30 μM.
Setting [4] is: IFN-β secretion, THP1 cells, 5 h, 30 μM, read-out: % Effect at 30 μM relative to 2′3′-cGAMP.

Each structure is given as a SMILES string. Where two headings read alike, the source gives them in different places.

T1 sequence (Q86WV6 with tags, fused parts or gaps R71H/G230A/H232R/R293Q): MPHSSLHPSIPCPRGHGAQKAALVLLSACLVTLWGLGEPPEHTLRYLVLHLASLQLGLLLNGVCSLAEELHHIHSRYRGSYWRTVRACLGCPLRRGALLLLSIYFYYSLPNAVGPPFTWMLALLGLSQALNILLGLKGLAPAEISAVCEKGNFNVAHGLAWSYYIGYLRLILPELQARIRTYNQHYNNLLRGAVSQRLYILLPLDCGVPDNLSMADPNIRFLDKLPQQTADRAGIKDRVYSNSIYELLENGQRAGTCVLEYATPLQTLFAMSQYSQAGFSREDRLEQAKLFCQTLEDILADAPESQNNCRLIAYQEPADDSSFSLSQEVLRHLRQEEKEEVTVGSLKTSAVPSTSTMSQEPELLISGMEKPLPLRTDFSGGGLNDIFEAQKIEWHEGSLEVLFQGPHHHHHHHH

Take `Nc1nc2c(ncn2[C@@H]2O[C@@H]3COP(=O)(S)O[C@H]4[C@H](F)[C@H](n5nnc6c(N)ncnc65)O[C@@H]4COP(=O)(S)O[C@H]2[C@@H]3O)c(=O)[nH]1` (single isomer, unassigned) [Example 1]: in assay [1], the EC50 was determined as 1140 nM. Further, the “% Effect at 30 μM relative to 2′3′-cGAMP” value in assay [2] (setting [3]) is reported as 24%.
On the same counts, the results for `Nc1nc2c(ncn2[C@@H]2O[C@@H]3COP(=O)(S)O[C@H]4[C@H](F)[C@H](n5nnc6c(N)ncnc65)O[C@@H]4COP(=O)(S)O[C@H]2[C@@H]3O)c(=O)[nH]1` (single isomer, unassigned) [Example 2] are 1130 nM and 29%.
On the same counts, the results for `Nc1nc2c(ncn2[C@@H]2O[C@@H]3COP(=O)(S)O[C@H]4[C@H](F)[C@H](n5nnc6c(N)ncnc65)O[C@@H]4COP(=O)(S)O[C@H]2[C@@H]3O)c(=O)[nH]1` (single isomer, unassigned) [Example 3] are 51.3 nM and 128%.
On to `Nc1nc2c(ncn2[C@@H]2O[C@@H]3COP(=O)(S)O[C@H]4[C@H]5OC[C@]4(COP(=O)(S)O[C@H]2[C@@H]3O)O[C@H]5n2cnc3c(N)ncnc32)c(=O)[nH]1` (single isomer, unassigned) [Example 4], for which the “% Effect at 30 μM relative to 2′3′-cGAMP” value in assay [2] (setting [3]) is on record as 113%.
In the case of `Nc1nc2c(ncn2[C@@H]2O[C@@H]3COP(=O)(S)O[C@H]4[C@H]5OC[C@]4(COP(=O)(S)O[C@H]2[C@@H]3O)O[C@H]5n2cnc3c(N)ncnc32)c(=O)[nH]1` (single isomer, unassigned) [Example 5], the activation at 30 µM in assay [2] (setting [4]) was found to be 113%.
As for `Nc1nc2c(ncn2[C@@H]2O[C@@H]3COP(=O)(S)O[C@H]4[C@H](F)[C@H](n5nnc6c(N)ncnc65)O[C@@H]4COP(=O)(S)O[C@H]2C3)c(=O)[nH]1` (single isomer, unassigned) [Example 6], in assay [1], the response was half-maximal at 241 nM (EC50). For the same compound, in assay [2] (setting [3]), the “% Effect at 30 μM relative to 2′3′-cGAMP” value is 60%.
On the same counts, the results for `Nc1nc2c(ncn2[C@@H]2O[C@@H]3COP(=O)(S)O[C@H]4[C@H](F)[C@H](n5nnc6c(N)ncnc65)O[C@@H]4COP(=O)(S)O[C@H]2C3)c(=O)[nH]1` (single isomer, unassigned) [Example 7] are 3670 nM and 15%.
On the same counts, the results for `Nc1nc2c(ncn2[C@@H]2O[C@@H]3COP(=O)(S)O[C@H]4[C@H](F)[C@H](n5nnc6c(N)ncnc65)O[C@@H]4COP(=O)(S)O[C@H]2C3)c(=O)[nH]1` (single isomer, unassigned) [Example 8] are 26 nM and 145%.
Turning to `Nc1nc2c(ncn2[C@@H]2O[C@@H]3COP(=O)(O)O[C@H]4[C@H](F)[C@H](n5cnc6c(N)ncnc65)O[C@@H]4COP(=O)(S)O[C@H]2[C@@H]3F)c(=O)[nH]1` (single isomer, unassigned) [Example 13], the “% Effect at 30 μM relative to 2′3′-cGAMP” value in assay [2] (setting [3]) was 79%.
Same read-out and setting: the same measure for `Nc1nc2c(ncn2[C@@H]2O[C@@H]3COP(=O)(O)O[C@H]4[C@H](F)[C@H](n5cnc6c(N)ncnc65)O[C@@H]4COP(=O)(S)O[C@H]2[C@@H]3F)c(=O)[nH]1` (single isomer, unassigned) [Example 14]: 257%.
The same measure, in the same setting: then `Nc1nc2c(ncn2[C@@H]2O[C@@H]3COP(=O)(S)O[C@H]4[C@H](F)[C@H](n5cnc6c(N)ncnc65)O[C@@H]4COP(=O)(S)O[C@H]2[C@@H]3F)c(=O)[nH]1` (single isomer, unassigned) [Example 15], with 31%; and `Nc1nc2c(ncn2[C@@H]2O[C@@H]3COP(=O)(S)O[C@H]4[C@H](F)[C@H](n5cnc6c(N)ncnc65)O[C@@H]4COP(=O)(S)O[C@H]2[C@@H]3F)c(=O)[nH]1` (single isomer, unassigned) [Example 16], with 188%; and `Nc1nc2c(ncn2[C@@H]2O[C@@H]3COP(=O)(S)O[C@H]4[C@H](F)[C@H](n5cnc6c(N)ncnc65)O[C@@H]4COP(=O)(S)O[C@H]2[C@@H]3F)c(=O)[nH]1` (single isomer, unassigned) [Example 17], with 141%.
For `Nc1nc2c(nnn2[C@@H]2O[C@@H]3COP(=O)(S)O[C@H]4C[C@H](n5ccc6c(N)ncnc65)O[C@@H]4COP(=O)(S)O[C@H]2C3)c(=O)[nH]1` (single isomer, unassigned) [Example 22], in assay [2] (setting [4]), the activation at 30 µM is 69%.
Consider `Nc1nc2c(nnn2[C@@H]2O[C@@H]3COP(=O)(S)O[C@H]4C[C@H](n5ccc6c(N)ncnc65)O[C@@H]4COP(=O)(S)O[C@H]2[C@@H]3F)c(=O)[nH]1` (single isomer, unassigned) [Example 25], for which the EC50 in assay [1] is 99.9 nM. Further, the activation at 30 µM in assay [2] (setting [4]) was determined as 92%.
`Nc1nc2c(nnn2[C@@H]2O[C@@H]3COP(=O)(S)O[C@H]4C[C@H](n5ccc6c(N)ncnc65)O[C@@H]4COP(=O)(S)O[C@H]2[C@@H]3F)c(=O)[nH]1` (single isomer, unassigned) [Example 26]: the midpoint of the response in assay [1], the EC50, lay at 5.62 nM. For the same compound, the “% Effect at 30 μM relative to 2′3′-cGAMP” value in assay [2] (setting [3]) worked out at 79%.
Consider `Nc1nc2c(nnn2[C@@H]2O[C@@H]3COP(=O)(S)O[C@H]4[C@H](F)[C@H](n5nnc6c(N)ncnc65)O[C@@H]4COP(=O)(S)O[C@H]2[C@@H]3F)c(=O)[nH]1` (stereo partly drawn) [Example 24, 5-amino-3-[(5R,7R,8R,12aR,14R,15S,15aR,16R)-14-(7-amino-3H-[1,2,3]triazolo[4,5-d]pyrimidin-3-yl)-15,16-difluoro-2,10-dioxido-2,10-disulfanyloctahydro-12H-5,8-methanofuro[3,2-1][1,3,6,9,11,2,10]pentaoxadiphosphacyclotetradecin-7-yl]-3,6-dihydro-7H-[1,2,3]triazolo[4,5-d]pyrimidin-7-one], for which, in assay [2] (read-out: % Effect at 30 μM relative to 2′3′-cGAMP, IFN-β secretion, THP1 cells, 5 h, 30 μM), the activation at 30 µM worked out at 129%.

One may read the EC50 as the concentration at which the effect is half-maximal. A lower EC50 goes with a more potent agent.
